Laboratory results taken from patent publication US20220163532A1, “NUCLEAR-DERIVED EXOSOMES AND METHODS OF USE THEREOF” (Board of Regents, The University of Texas System, priority 2019, published 2022).

What was measured:
[1] = system: OVCAR-5 ovarian cancer model; assay: MN quantification in tumor nodules of OVCAR-5 intraperitoneal model after topotecan; type: in vivo, mouse; details: topotecan 7.5 mg/kg intraperitoneally, single dose, euthanized 48 hours later; vs vehicle control
Description: In vivo experiments. For the in vivo mouse experiments, female athymic (NCr-nude) mice were purchased from Taconic Biosciences. Mice were cared for in accordance with the American Association for Assessment and Accreditation of Laboratory Animal Care and the U.S. Public Health Service policy on Humane Care and Use of Laboratory Animals. All studies and experiments that were performed were supervised and approved by the MD Anderson Institutional Animal Care and Use Committee. Mice were 10 to 15 weeks old at the time of tumor intraperitoneal cell injections. OVCAR-5 luciferase—labeled cells (1×10^6) were injected intraperitoneally into each mouse. […]
Human tumor samples and MN quantification. […] For MN identification and quantification, the Vectra Polaris platform (PerkinElmer) was used, and inForm software (PerkinElmer) was used to systematically count MN. After tissue segmentation, a number of nuclei in views were calculated by the cell segmentation process, and MN was defined as over 0.85 roundness and less than approximately 3 μm size (95 pixels in 96 dpi images), as shown in FIG. 3D.
To validate these findings in vivo, the OVCAR-5 ovarian cancer model, which represents disseminated peritoneal disease, was used. […] To calculate the number of MN, multiple IF images of tumor slides were taken, and MN were systematically counted by the Vectra—inForm Image Analysis System (PerkinElmer) (FIG. 3D).

[2] = system: OVCAR-5 ovarian cancer model; assay: nExos in serum and ascites of OVCAR-5 tumor-bearing mice by imaging flow cytometry; type: in vivo, mouse; details: topotecan 7.5 mg/kg vs vehicle control
Excerpt: Exosome staining for imaging flow cytometry and analysis. For quantitative analysis and imaging flow cytometry of exosomes, the method described by Erdbrugger et al. (2014) using an Amnis ImageStreamX MarkII analyzer was adapted. Briefly, 3×10^9 to 5×10^9 particles were isolated from either tissue culture cells, mouse serum and ascites, or serum obtained from patients with ovarian cancer and resuspended in PBS. Exosomes were placed in a sterile 1.5-ml Eppendorf tube and stained with CellMask Green Plasma Membrane (CMG) stain (1:250 dilution; C37608, Thermo Fisher Scientific) for 30 min at 37° C., protected from light. Exosomes were then washed to remove excess CMG by adding 2 ml of PBS and pelleted by ultracentrifugation at 40,000 rpm for 2 hours at 4° C. […]
To stain for dsDNA, CMG-stained exosomes were co-stained with DRAQ5 (62254, Thermo Fisher Scientific) at either 1:50 dilution for biofluid exosome samples or 1:250 dilution for cell culture samples and were lightly agitated at RT for 1 hour, protected from light. Samples were then placed on ice, and images of single exosomes were detected using the 60× objective of an Amnis ImageStreamX MarkII analyzer. […] Particle size was estimated using Invitrogen Flow Cytometry Submicron Particle Size Reference Beads (F13839, Thermo Fisher Scientific), allowing exclusion of particles <150 nm based on the signal detected from side scatter. […]

CC[C@@]1(O)C(=O)OCc2c1cc1n(c2=O)Cc2cc3c(CN(C)C)c(O)ccc3nc2-1 [topotecan]
MN-positive cell percentages in tumor [1]: trend toward an increased | nExos in ascites ([2]; ascites, P=0.028): significant increase | nExos in serum ([2]; serum): no difference
